According to article PMC10056986 (Pharmaceuticals, 2023):

Columns and labels:
CK1 alpha = CK1 alpha (Homo sapiens, UniProt P48729); assay: biochemical
FGFR1 = FGFR1 (Homo sapiens, UniProt P11362); assay: biochemical
GSK3 beta = GSK3 beta (Homo sapiens, UniProt P49841); assay: biochemical
LCK = LCK (Homo sapiens, UniProt P06239); assay: biochemical
op-delta [1] = target: T1, op-delta (Homo sapiens, UniProt P41143); assay: cell-based
D1 = D1 (Homo sapiens, UniProt P21728); assay: cell-based
D2 [2] = target: T2, D2 (Homo sapiens, UniProt P14416); assay: cell-based
T2 sequence (P14416 whole entry): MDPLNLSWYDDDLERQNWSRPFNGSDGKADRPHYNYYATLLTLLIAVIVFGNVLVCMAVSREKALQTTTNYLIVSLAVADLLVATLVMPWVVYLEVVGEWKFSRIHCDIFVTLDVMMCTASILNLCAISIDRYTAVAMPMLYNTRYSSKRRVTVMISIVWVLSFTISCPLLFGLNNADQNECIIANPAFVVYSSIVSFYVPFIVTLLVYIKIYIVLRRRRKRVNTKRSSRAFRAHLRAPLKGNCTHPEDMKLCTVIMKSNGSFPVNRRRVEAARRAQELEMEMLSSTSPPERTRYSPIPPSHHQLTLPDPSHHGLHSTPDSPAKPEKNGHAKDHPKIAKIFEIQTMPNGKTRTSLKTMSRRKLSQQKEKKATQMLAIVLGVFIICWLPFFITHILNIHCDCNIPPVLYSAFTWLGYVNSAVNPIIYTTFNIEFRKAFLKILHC

Alpha2a [3] = target: T3, Alpha2a (Homo sapiens, UniProt P08913); assay: cell-based
T3 sequence (P08913 whole entry): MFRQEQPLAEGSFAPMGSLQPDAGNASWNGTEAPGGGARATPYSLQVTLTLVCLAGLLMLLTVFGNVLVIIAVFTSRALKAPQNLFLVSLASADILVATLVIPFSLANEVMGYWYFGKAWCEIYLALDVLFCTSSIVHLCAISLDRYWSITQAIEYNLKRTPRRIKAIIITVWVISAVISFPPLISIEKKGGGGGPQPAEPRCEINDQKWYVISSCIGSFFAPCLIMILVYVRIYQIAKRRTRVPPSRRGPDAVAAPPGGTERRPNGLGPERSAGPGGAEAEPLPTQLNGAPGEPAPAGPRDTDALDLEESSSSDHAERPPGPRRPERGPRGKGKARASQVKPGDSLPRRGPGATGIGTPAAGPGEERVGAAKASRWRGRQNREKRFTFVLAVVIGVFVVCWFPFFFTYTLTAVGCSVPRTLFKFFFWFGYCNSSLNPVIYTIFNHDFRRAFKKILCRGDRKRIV

M2 [4] = target: T4, M2 (Homo sapiens, UniProt P08172); assay: cell-based
T4 sequence (P08172 whole entry): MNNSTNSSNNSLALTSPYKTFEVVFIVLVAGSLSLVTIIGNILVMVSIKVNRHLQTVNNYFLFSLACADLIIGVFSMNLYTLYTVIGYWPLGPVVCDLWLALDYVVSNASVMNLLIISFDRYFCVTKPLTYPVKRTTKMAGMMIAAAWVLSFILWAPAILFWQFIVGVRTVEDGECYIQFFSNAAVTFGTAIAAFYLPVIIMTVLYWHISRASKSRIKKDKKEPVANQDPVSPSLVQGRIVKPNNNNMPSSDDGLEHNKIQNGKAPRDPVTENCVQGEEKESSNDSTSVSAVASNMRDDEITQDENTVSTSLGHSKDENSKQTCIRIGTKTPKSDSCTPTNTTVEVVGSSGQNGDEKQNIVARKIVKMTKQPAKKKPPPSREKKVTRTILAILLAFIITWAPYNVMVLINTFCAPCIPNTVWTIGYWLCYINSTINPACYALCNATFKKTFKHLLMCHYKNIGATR

AD2 = type: cell-based, human
Eta = Eta (Homo sapiens, UniProt P25101); assay: cell-based
Chain of Eta (P25101 21-427): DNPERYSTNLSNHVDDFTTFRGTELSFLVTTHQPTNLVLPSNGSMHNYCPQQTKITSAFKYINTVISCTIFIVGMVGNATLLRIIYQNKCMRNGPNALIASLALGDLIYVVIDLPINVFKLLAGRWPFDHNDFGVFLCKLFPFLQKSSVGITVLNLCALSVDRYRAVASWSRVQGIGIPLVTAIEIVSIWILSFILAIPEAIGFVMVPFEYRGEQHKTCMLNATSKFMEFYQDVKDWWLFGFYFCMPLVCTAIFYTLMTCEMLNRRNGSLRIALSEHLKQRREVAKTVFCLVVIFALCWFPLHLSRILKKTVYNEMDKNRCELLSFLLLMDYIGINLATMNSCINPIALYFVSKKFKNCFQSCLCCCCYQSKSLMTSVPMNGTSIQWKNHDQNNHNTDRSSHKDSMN

5HT1A = 5HT1A (Homo sapiens, UniProt P08908); assay: cell-based
Chain of 5HT1A (P08908 whole entry): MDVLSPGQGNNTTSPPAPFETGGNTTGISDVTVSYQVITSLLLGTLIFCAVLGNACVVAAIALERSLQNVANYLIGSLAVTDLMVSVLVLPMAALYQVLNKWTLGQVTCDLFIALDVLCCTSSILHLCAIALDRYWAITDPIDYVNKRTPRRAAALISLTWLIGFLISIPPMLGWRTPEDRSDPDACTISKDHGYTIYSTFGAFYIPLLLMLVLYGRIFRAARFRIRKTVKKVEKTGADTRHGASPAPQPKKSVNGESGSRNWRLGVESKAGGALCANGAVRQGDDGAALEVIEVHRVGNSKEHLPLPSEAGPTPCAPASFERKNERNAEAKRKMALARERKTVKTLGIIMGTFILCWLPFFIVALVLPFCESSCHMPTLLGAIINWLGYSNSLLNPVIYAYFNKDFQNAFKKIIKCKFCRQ

op-delta [5] = target: T1, op-delta; assay: cell-based; remark: listed apart in the source
op-kappa = op-kappa (Homo sapiens, UniProt P41145); assay: cell-based
Chain of op-kappa (P41145 whole entry): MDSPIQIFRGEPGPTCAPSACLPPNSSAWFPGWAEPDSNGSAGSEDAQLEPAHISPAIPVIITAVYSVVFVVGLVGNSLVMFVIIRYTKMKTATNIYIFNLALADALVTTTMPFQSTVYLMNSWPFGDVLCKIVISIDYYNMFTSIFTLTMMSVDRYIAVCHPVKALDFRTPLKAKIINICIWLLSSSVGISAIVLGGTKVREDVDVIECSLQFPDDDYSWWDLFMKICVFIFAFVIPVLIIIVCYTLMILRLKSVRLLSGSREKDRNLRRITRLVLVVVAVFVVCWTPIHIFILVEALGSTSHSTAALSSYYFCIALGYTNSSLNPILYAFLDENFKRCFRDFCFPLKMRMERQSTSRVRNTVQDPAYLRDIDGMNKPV

D2 [6] = target: T2, D2; assay: cell-based; remark: listed apart in the source
Alpha2a [7] = target: T3, Alpha2a; assay: cell-based; remark: listed apart in the source
M2 [8] = target: T4, M2; assay: cell-based; remark: listed apart in the source
Beta1 = Beta1 (Homo sapiens, UniProt P08588); assay: cell-based
Chain of Beta1 (P08588 whole entry): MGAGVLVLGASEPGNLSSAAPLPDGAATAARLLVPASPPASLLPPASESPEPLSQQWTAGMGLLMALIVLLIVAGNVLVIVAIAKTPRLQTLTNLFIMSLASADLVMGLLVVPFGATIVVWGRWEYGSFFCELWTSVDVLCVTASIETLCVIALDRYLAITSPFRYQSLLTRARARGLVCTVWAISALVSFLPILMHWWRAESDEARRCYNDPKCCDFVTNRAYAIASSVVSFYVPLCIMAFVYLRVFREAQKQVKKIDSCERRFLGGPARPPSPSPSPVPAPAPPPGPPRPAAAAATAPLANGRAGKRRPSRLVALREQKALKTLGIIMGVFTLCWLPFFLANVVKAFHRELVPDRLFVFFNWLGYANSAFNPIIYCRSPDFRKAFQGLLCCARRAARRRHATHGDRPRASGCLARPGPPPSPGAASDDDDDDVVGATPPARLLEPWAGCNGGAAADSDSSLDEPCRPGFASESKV

[9] = system: Influenza virus A/PR/8/34 (H1N1); assay: microbe, parasite or virus in culture; type: cell-based; settings: H1N1|PR/8, MDCK, read-out: EC50 (mean ± SD)
[10] = system: Influenza virus A/WS/33 (H1N1); assay: microbe, parasite or virus in culture; type: cell-based; settings: H1N1, MDCK, read-out: EC50 (mean ± SD)
A/Anhui/01/2013 (H7N9) = assay: microbe, parasite or virus in culture; type: cell-based, avian influenza virus; settings: Influenza A virus, H7N9, MDCK, read-out: IC50 (mean ± SD)
[11] = system: A/Guangzhou/39715/2014 (H5N6); assay: microbe, parasite or virus in culture; type: cell-based, avian influenza virus; settings: unidentified influenza virus, H5N6, MDCK, read-out: IC50 (mean ± SD)
[12] = system: Influenza virus A/California/07/2009 (H1N1)pdm09; assay: microbe, parasite or virus in culture; type: cell-based; settings: H1N1, MDCK, read-out: EC50 (mean ± SD)
RSV long = assay: microbe, parasite or virus in culture; type: cell-based, respiratory syncytial virus; settings: human respiratory syncytial virus, HEp-2, read-out: EC50 for Virus
EV71 Shenzhen/120F1/09 = assay: microbe, parasite or virus in culture; type: cell-based, human enterovirus 71; settings: Enterovirus A, EV71, RD, read-out: EC50 for Virus
HRV 1B = assay: microbe, parasite or virus in culture; type: cell-based; settings: Human rhinovirus sp., H1-HeLa, read-out: EC50 for Virus
HCV replicon 1b = assay: microbe, parasite or virus in culture; type: cell-based; settings: Hepatitis C virus, read-out: EC50 for Virus
A/PR/8/34 (H1N1) = system: A/PR/8/34 (H1N1); design: species or system BALB/c mice; settings: mouse, in vivo
[13] = system: influenza A virus/California/07/2009 (H1N1); design: species or system ferrets; settings: in vivo, po, 25 mg/kg/day
22 GPCR targets = type: cell-based, human; settings: read-out: EC50 (agonistic activity)
[14] = rat, in vivo, 15 mg/kg
hERG potassium channel = hERG potassium channel (Homo sapiens, UniProt Q12809); assay: in vitro
in vitro [15] = settings: human
in vitro [16] = settings: human; remark: listed apart in the source
SRC = SRC (Homo sapiens, UniProt P12931); assay: biochemical
TNIK = TNIK (Homo sapiens, UniProt Q9UKE5); assay: biochemical
[17] = 10,000 nM, read-out: Inhibition at Maximum Concentration (%)

T1 sequence (P41143 whole entry): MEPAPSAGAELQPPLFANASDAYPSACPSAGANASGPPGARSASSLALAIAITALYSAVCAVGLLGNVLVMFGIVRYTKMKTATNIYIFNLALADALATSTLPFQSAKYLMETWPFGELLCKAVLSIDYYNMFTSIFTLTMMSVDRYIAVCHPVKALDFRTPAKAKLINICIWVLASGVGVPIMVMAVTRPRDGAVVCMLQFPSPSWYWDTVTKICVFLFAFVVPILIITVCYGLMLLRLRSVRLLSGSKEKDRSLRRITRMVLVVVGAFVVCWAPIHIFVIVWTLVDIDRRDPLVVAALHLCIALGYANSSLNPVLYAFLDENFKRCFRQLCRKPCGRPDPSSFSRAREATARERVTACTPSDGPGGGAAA
Chain of D1 (P21728 whole entry): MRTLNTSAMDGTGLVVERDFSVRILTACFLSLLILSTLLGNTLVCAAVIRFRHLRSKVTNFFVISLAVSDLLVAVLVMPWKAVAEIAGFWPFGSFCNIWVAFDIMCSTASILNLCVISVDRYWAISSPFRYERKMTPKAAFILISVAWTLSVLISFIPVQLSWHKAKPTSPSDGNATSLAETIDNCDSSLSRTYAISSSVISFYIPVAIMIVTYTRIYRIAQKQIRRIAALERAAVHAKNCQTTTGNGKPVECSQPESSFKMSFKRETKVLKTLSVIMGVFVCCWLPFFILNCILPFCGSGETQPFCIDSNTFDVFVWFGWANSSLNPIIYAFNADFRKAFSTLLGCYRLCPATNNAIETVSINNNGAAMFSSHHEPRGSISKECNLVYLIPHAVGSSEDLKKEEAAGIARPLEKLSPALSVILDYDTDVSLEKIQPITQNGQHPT
Chain of GSK3 beta (P49841 whole entry): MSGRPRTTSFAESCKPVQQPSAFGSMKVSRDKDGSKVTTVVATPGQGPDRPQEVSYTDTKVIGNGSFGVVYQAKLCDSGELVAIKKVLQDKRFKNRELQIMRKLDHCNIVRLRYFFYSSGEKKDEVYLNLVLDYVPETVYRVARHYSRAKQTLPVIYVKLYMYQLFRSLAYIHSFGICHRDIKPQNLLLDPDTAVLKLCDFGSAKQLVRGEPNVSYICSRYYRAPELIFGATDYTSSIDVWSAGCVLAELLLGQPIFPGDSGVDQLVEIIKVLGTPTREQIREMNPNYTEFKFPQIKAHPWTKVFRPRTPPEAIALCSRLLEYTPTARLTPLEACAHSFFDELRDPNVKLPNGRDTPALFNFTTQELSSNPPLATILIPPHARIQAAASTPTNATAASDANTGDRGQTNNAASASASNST
Chain of LCK (P06239 whole entry): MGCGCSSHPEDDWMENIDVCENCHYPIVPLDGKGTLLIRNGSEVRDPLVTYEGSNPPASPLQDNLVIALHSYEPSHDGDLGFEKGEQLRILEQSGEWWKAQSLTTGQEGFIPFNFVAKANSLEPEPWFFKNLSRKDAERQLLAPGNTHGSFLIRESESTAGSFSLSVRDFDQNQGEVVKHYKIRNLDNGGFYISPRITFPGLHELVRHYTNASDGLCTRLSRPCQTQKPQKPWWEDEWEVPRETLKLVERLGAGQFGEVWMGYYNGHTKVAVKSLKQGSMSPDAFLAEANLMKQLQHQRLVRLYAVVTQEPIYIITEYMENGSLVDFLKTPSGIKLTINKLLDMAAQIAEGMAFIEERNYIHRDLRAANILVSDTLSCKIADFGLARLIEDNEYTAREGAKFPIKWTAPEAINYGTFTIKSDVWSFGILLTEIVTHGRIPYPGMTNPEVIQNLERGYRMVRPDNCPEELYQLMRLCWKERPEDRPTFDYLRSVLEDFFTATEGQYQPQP

Question: With `O=C(O)[C@H]1C2CCC(CC2)[C@@H]1Nc1nc(-c2n[nH]c3ncc(F)cc23)nc(C2CC2)c1F` [ZSP1273] as the molecule, how does the IC50 (CK1 alpha) read?
Answer: The IC50 was greater than 10 µM.

Question: What about the IC50 (FGFR1) of the same molecule?
Answer: The IC50 was greater than 10 µM.

Question: And the IC50 (GSK3 beta)?
Answer: The IC50 was greater than 10 µM.

Question: And the IC50 (LCK)?
Answer: Its IC50 is greater than 10 µM.

Question: And the EC50 (op-delta [1])?
Answer: Its EC50 is greater than 12 µM.

Question: What about the “Activity at Maximum Concentration (%)” value (op-delta [1]; 12,000 nM) of the same molecule?
Answer: The value was −10.64%.

Question: And the EC50 (D1)?
Answer: The EC50 was greater than 12 µM.

Question: What about the “Activity at Maximum Concentration (%)” value (D1; 12,000 nM) of the same molecule?
Answer: Its value is −2.15%.

Question: What about the EC50 (D2 [2]) of the same molecule?
Answer: The EC50 was greater than 12 µM.

Question: What about the “Activity at Maximum Concentration (%)” value (D2 [2]; 12,000 nM) of the same molecule?
Answer: Its value is −0.06%.

Question: What about the EC50 (Alpha2a [3]) of the same molecule?
Answer: The EC50 was greater than 12 µM.

Question: What about the “Activity at Maximum Concentration (%)” value (Alpha2a [3]; 12,000 nM) of the same molecule?
Answer: Its value is −2.1%.

Question: What about the EC50 (M2 [4]) of the same molecule?
Answer: The EC50 was greater than 12 µM.

Question: What about the “Activity at Maximum Concentration (%)” value (M2 [4]; 12,000 nM) of the same molecule?
Answer: Its value is −3%.

Question: And the EC50 (AD2)?
Answer: Its EC50 is greater than 12 µM.

Question: What about the “Activity at Maximum Concentration (%)” value (AD2; 12,000 nM) of the same molecule?
Answer: Its value is 3.38%.

Question: And the EC50 (Eta)?
Answer: Its EC50 is greater than 12 µM.

Question: And the “Activity at Maximum Concentration (%)” value (Eta; 12,000 nM)?
Answer: Its value is −1.16%.

Question: What about the EC50 (5HT1A) of the same molecule?
Answer: Its EC50 is greater than 12 µM.

Question: What about the “Activity at Maximum Concentration (%)” value (5HT1A; 12,000 nM) of the same molecule?
Answer: The value was 16.98%.

Question: What about the IC50 (op-delta [5]) of the same molecule?
Answer: The IC50 was greater than 10 µM.

Question: What about the inhibition at 10 µM (op-delta [5]; [17]) of the same molecule?
Answer: The inhibition at 10 µM was 7.37%.

Question: And the IC50 (op-kappa)?
Answer: Its IC50 is greater than 10 µM.

Question: And the inhibition at 10 µM (op-kappa; [17])?
Answer: Its inhibition at 10 µM is -27.8%.

Question: What about the IC50 (D2 [6]) of the same molecule?
Answer: The IC50 was greater than 10 µM.

Question: What about the inhibition at 10 µM (D2 [6]; [17]) of the same molecule?
Answer: Its inhibition at 10 µM is 13.6%.

Question: And the IC50 (Alpha2a [7])?
Answer: Its IC50 is greater than 10 µM.

Question: And the inhibition at 10 µM (Alpha2a [7]; [17])?
Answer: The inhibition at 10 µM was -9.3%.

Question: What about the IC50 (M2 [8]) of the same molecule?
Answer: The IC50 was greater than 10 µM.

Question: What about the inhibition at 10 µM (M2 [8]; [17]) of the same molecule?
Answer: The inhibition at 10 µM was -55.7%.

Question: And the IC50 (Beta1)?
Answer: Its IC50 is greater than 10 µM.

Question: And the inhibition at 10 µM (Beta1; [17])?
Answer: The inhibition at 10 µM was -22.7%.

Question: And the EC50 [9]?
Answer: Its EC50 is 0.042 ± 0.01 nM.

Question: What about the EC50 [10] of the same molecule?
Answer: The EC50 was 0.032 ± 0.01 nM.

Question: And the IC50 (A/Anhui/01/2013 (H7N9))?
Answer: The IC50 was 0.627 ± 0.312 nM.

Question: What about the IC50 [11] of the same molecule?
Answer: The IC50 was 0.245 ± 0.03 nM.

Question: And the EC50 [12]?
Answer: Its EC50 is 0.02 ± 0.003 nM.

Question: And the EC50 (RSV long)?
Answer: The EC50 was greater than 10 µM.

Question: What about the EC50 (EV71 Shenzhen/120F1/09) of the same molecule?
Answer: Its EC50 is greater than 10 µM.

Question: What about the EC50 (HRV 1B) of the same molecule?
Answer: The EC50 was 7.88 µM.

Question: What about the EC50 (HCV replicon 1b) of the same molecule?
Answer: Its EC50 is greater than 10 µM.

Question: What about the lung index (A/PR/8/34 (H1N1)) of the same molecule?
Answer: Its lung index is “significantly decreased”.

Question: What about the “viral titers in the lung tissues” value (A/PR/8/34 (H1N1)) of the same molecule?
Answer: Its value is 0.

Question: And the “viral load in nasal lavage fluid vs vehicle” value [13]?
Answer: Its value is “decreased significantly”.

Question: And the EC50 (22 GPCR targets)?
Answer: Its EC50 is greater than 12 µM.

Question: What about the “accumulation (AUC0-last and Cmax, day 7 vs day 1)” value [14] of the same molecule?
Answer: The value was “No significant accumulation”.

Question: What about the inhibition at 40 µM (hERG potassium channel) of the same molecule?
Answer: Its inhibition at 40 µM is less than 50%.

Question: What about the CC50 (in vitro [15]) of the same molecule?
Answer: Its CC50 is greater than 10 µM.

Question: And the CC50 (in vitro [16])?
Answer: The CC50 was greater than 10 µM.

Question: What about the IC50 (SRC) of the same molecule?
Answer: Its IC50 is greater than 10 µM.

Question: And the IC50 (TNIK)?
Answer: Its IC50 is greater than 10 µM.
